# “Also recorded” adds a separate entry of the source.
# Tests used:
# Format in all cases: in vivo, mouse (C57BL/6N)
# [1] = system: mouse HFpEF model; test: Echocardiography and Doppler imaging (systolic and diastolic function) in HFpEF model mice (HFD+L-NAME); details: male mice
# Text: (§1) Male C57BL/6N wild-type mice aged 8 to 10 weeks were divided into three groups, namely, normal group (normal diet and drinking water), model control group (high-fat diet combined with administration of N-nitro-L-arginine methyl ester) and model treatment group (high-fat diet combined with administration of N-nitro-L-arginine methyl ester and treatment with T-5224). Among them, the model control group and the model treatment group were modeled by the following literature: Gabriele G. Schiattarella et al., Nitrosative stress drives heart failure with preserved ejection fraction, https://doi.org/10.1038/s41586-019-1100-z. Specifically, heart failure with preserved ejection fraction was induced by a high-fat diet (HFD) (60% kcal, from fat (lard)) and N-nitro-L-arginine methyl ester (abbreviated as L-NAME, 0.5 g/L in drinking water) to obtain the HFpEF animal model. […]
# All the mice were raised under different conditions for five weeks and then began to undergo conventional echocardiography and Doppler imaging, which was performed every two weeks until the end of the 15th week. […] All parameters were measured at least 3 times, and the mean values were provided. […]
# [2] = Changes in body weight / obesity of HFpEF model mice with different treatments; details: HFD+L-NAME mice treated with T-5224 (total dose 250 mg/kg); FIG. 3C
# Text: Male C57BL/6N wild-type mice aged 8 to 10 weeks were divided into three groups, namely, normal group (normal diet and drinking water), model control group (high-fat diet combined with administration of N-nitro-L-arginine methyl ester) and model treatment group (high-fat diet combined with administration of N-nitro-L-arginine methyl ester and treatment with T-5224). Among them, the model control group and the model treatment group were modeled by the following literature: Gabriele G. Schiattarella et al., Nitrosative stress drives heart failure with preserved ejection fraction, https://doi.org/10.1038/s41586-019-1100-z. Specifically, heart failure with preserved ejection fraction was induced by a high-fat diet (HFD) (60% kcal, from fat (lard)) and N-nitro-L-arginine methyl ester (abbreviated as L-NAME, 0.5 g/L in drinking water) to obtain the HFpEF animal model.
# After the animal model was obtained, that was, from the 5′ week of inducing the HFpEF model, the model treatment group was treated with T-5224, the model control group was treated with a solvent without drug, and the mice with normal diet and drinking water during the whole induction process were used as negative control. The mice were administrated with drugs when they were raised for 5 weeks. For the treatment group, T-5224 was administered at 250 mg/kg according to the body weight of mice. […]
# [3] = system: Jun; test: Quantitative PCR detection of Jun expression in cardiomyocytes of HFpEF model mice; details: HFD+L-NAME mice treated with T-5224, compared with the model control group; qPCR, b-Actin standardized; FIG. 3D
# Text: as §1, with “https://doi.org/10.1038/s41586-019-1100-z.” for “https://doi.org/10.1038/s41586-019-1100-z. Specifically, heart failure with preserved ejection fraction was induced by a high-fat diet (HFD) (60% kcal, from fat (lard)) and N-nitro-L-arginine methyl ester (abbreviated as L-NAME, 0.5 g/L in drinking water) to obtain the HFpEF animal model.”
# In the 15th week of model induction, the cardiomyocytes of normal group and the model control group were isolated by perfusion method, and quantitative RCR detection was performed. […]
# Total RNA was extracted from cells using GeneJet RNA purification kit (Thermo Scientific, K0732), and […] of total RNA was reverse transcribed using iScript TM cDNA synthesis kit (Bio-Rad, 1708890) to generate cDNA. qPCR was performed using iTaqUniversl SYBR Green supermix (1725121, Bio-Rad) on ABI Vii7 real-time system (Life Technologies, Q6), and b-Actin was used for standardized quantitative analysis. […]
compound,measurement,setting,value
O=C(O)CCc1cc(C(=O)c2ccc(OC3CCCC3)cc2O)ccc1OCc1ccc2c(O)noc2c1 [T-5224],diastolic function (E/E′),"[1]; HFD+0.5 g/L L-NAME, T-5224 0.8 mg in 200 μL 1% PVP every other day, 5th to 13th week, total dose 250 mg/kg, followed to 15th week, FIG. 3B",significantly improved and could be maintained until the 15th week
same,occurrence and development of HFpEF,"[1]; HFD+L-NAME, cardiac function detection after T-5224 administration (from 5th week, total dose 250 mg/kg), FIG. 3A-B, 250 mg/kg",effectively alleviate the occurrence and development of HFpEF; also recorded: well suppressed
same,mouse obesity (changes in body weight),[2],improved
same,expression of Jun in cardiomyocytes,[3],down-regulated compared with the model control group

# — patent US20260355164A1, “USE OF JUN INHIBITOR IN PREPARING MEDICAMENT FOR TREATING HEART FAILURE WITH PRESERVED EJECTION FRACTION” (Fuwai Hospital, Chinese Academy of Medical Sciences and …, priority 2022, published 2026)
